# Laboratory results published in PubChem BioAssay AID179 (DTP/NCI, 2004).
# pEC50, pIC50: −log10 of the molar value. Active and inactive are the calls of the source.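 Rule for the calls: active = compounds giving half or more protection of infected cells from virus-caused growth loss, again on retest; inactive = the rest.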 Where a SMILES comes first, the peptide text is derived from it. The star is where a group is joined. Boc = CC(C)(C)OC(=O)*; OtBu = CC(C)(C)O*
# Tested on: CEM cells HIV-1 protection, formazan growth assay
# Test: NCI AIDS Antiviral Assay
# Conditions: for pIC50: measured here: growth of uninfected CEM cells
# Outline: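 Soluble formazan readout of cell growth; CEM cells ± HIV-1; 5 drug concs. ≥50% protection → retest; ≥50% again = moderately active; reproducible 100% = confirmed active.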
Structure (SMILES),pEC50,pIC50,outcome
CC(C)(C)c1cc2c(OC/C=C/c3ccccc3)c(c1)Cc1cc(C(C#N)(OC/C=C/c3ccccc3)OC/C=C/c3ccccc3)cc(c1OC/C=C\c1ccccc1)Cc1cc(C(C)(C)C)cc(c1OC/C=C/c1ccccc1)Cc1cc(C(C#N)(OC/C=C\c3ccccc3)OC/C=C/c3ccccc3)cc(c1OC/C=C\c1ccccc1)C2 (centres undefined),< 4.00,< 4.00,
C=CCC1C(O[Si](C)(C)C(C)(C)C)C(CO[Si](C)(C)C(C)(C)C)OC1n1ccc(=O)[nH]c1=O (centres undefined),< 3.70,5.56,
CN(C)C[C@H]1C2C=CC(C2)[C@@H]1CO (some centres undefined),< 3.31,< 3.31,
OCC(O)C(O)C(O)c1nn(-c2ccc(F)cc2)c2nc3cc(Cl)c(Cl)cc3nc12 (centres undefined),,,inactive
C=C1C[C@@H]2O[C@H]3[C@H]4[C@@H](C[C@@H](C)[C@@H](OC(C)=O)[C@H]42)[C@@H](C)CO[C@@]3(C)[C@H](OC(=O)CCCCCCC)C[C@H]1O,< 3.70,4.96,
COc1ccccc1N1C(=O)/C(=C\c2cccc(Oc3ccccc3)c2)SC1c1ccccc1 (centres undefined),< 3.70,4.28,
CC1(C)CCC(Sc2ccccc2)O1 (centres undefined),,,inactive
N=c1o[n-][n+](-c2ccccc2)c1-c1ccccc1,,,inactive
Oc1ccc(/C=C/c2ccc(O)c(O)c2)cc1O,< 3.70,4.84,
COC(=O)C(CNC(=O)/C=C/c1ccc(OC(C)=O)c(OC(C)=O)c1)NC(=O)/C=C/c1ccc(OC(C)=O)c(OC(C)=O)c1 (centres undefined),< 3.70,4.44,
O=C(CNC(c1ccccc1)(c1ccccc1)c1ccccc1)NC1CCCCC1NC(=O)CNC(c1ccccc1)(c1ccccc1)c1ccccc1 (centres undefined),< 3.70,< 3.70,
CC(C)OP(=O)(OC(C)C)/C(F)=N/Nc1ccc([N+](=O)[O-])cc1,< 4.41,< 4.41,
O=c1/c(=C/c2ccccc2)sc2nc(-c3ccccc3)nn12,< 3.70,< 3.70,
CCC/C(Cl)=N\OC(=O)Nc1cccc(C(F)(F)F)c1,< 3.70,5.17,
CC1=N/C(=C\c2ccc(C)cc2)C(=O)O1,< 3.89,< 3.89,inactive
O=c1cc(CO)oc(C(O)c2ccccc2)c1O (centres undefined),< 3.70,< 3.70,
CC(=O)/C(=C/n1c(=S)sc2ccccc21)C(=O)Nc1ccccc1,< 3.70,3.86,
COc1ccc2c3c(c(C(=O)O)oc13)CCC2,,,inactive
CCCC(O)[C@@]1(CC)CC(C)C(O)(C2(C)C[C@H](C)[C@@H](C(CC)C(=O)C(C)[C@@H](O)[C@H](C)C3OC(O)(C(CC)C(=O)O)[C@@H](C)C(O)C3CC)O2)O1 (some centres undefined),6.86,5.75,
CC(=O)OC1C(CN2CCOC2=O)OC(n2cc(C)c(=O)[nH]c2=O)C1OC(C)=O (centres undefined),< 3.70,< 3.70,
COc1ccc(C2CCC(=O)CC2C(=O)O)cc1 (centres undefined),< 3.38,< 3.38,

Structure (SMILES),pEC50,pIC50,outcome
COc1cc2c3c(c1OC)/C(=N/OS(=O)(=O)c1ccc(C)cc1)CC3N(S(=O)(=O)c1ccc(C)cc1)CC2 (centres undefined),,,inactive
COC(=O)n1c(C)c(C=O)c2ccc(OC)cc21,< 3.70,4.46,
COc1ccc(-c2c(C#N)c(N)n(C3OCC(O)C(O)C3O)c(=S)c2C#N)cc1 (centres undefined),< 3.70,3.93,
O=c1[nH]nnc2ccccc12,< 3.61,< 3.61,
CC1(C)SSC(C)(C)SS1,< 3.70,< 3.70,
Cc1cc(C)nc(NS(=O)(=O)c2ccc(Nc3c4ccccc4nc4c(C(=O)NC(CO)(CO)CO)cccc34)cc2)n1,< 3.70,5.03,
CN(CC1=C(O)C(=O)C(CN(C)Cc2c(O)ccc3ccccc23)=C(O)C1=O)Cc1c(O)ccc2ccccc12,< 4.76,< 4.76,
c1ccc([P+](Cc2cccc3c2Cc2ccccc2-3)(c2ccccc2)c2ccccc2)cc1,< 3.70,6.05,
COc1ccc(/C(=C/n2ccnc2)C(=O)c2ccc(OC)c(OC)c2)cc1,< 3.70,< 3.70,
CC(C)C(=S)N(C)O,< 4.73,6.52,
CCOC(=O)c1c2c3c(cccc3[nH]c1=O)Sc1ncccc1-2,< 3.70,4.80,
O=C(NOC(=O)c1ccc([N+](=O)[O-])cc1)c1ccc(Cl)cc1,< 3.95,< 3.95,
CC(=O)CCC(=O)CC(O)(C(F)(F)F)C(F)(F)F,< 3.70,4.48,
O=P(c1ccccc1)(c1ccccc1)C(NCc1ccccc1)c1ccc(F)cc1 (centres undefined),< 3.70,4.89,
CC(=O)OCCn1cnc2c(NCC=C(C)C)ncnc21,< 3.70,< 3.70,
CCOC(=O)Nc1ccc(C(=O)/C=C\c2ccc(N(CC)CC)cc2)cc1,< 3.70,5.43,
Cc1ccc(NCC(=O)N2CC(=O)Nc3ccccc32)c(C)c1,< 4.77,< 4.77,
Cn1cc(NC(=O)c2cc(NC(=O)CCCCCCCCC(=O)Nc3cc(C(=O)Nc4cc(C(=O)NCCC(N)N)n(C)c4)n(C)c3)cn2C)cc1C(=O)NCCC(=N)N,< 4.54,4.90,
CC(C)C1=C(Cc2ccccc2)C(=O)O/C1=C\c1cc(Cl)c(O)c(Cl)c1,< 3.70,4.49,
Cc1cc2c(C(C)C)c(O)c(O)c(C=NCC3CCCN4CCCCC34)c2cc1-c1cc2c(C=NCC3CCCN4CCCCC34)c(O)c(O)c(C(C)C)c2cc1C (centres undefined),5.33,5.18,
CC(C)(C)OC(=O)CC(NC(=O)OC(C)(C)C)C(=O)NC(Cc1ccccc1)C(N)=O (centres undefined) (Boc-Asp(OtBu)-Phe-NH2; configuration not given here),3.79,< 3.70,

Structure (SMILES),pEC50,pIC50,outcome
NS(=O)(=O)c1nnc(NS(=O)(=O)c2ccc(Cl)cc2)s1,< 3.70,< 3.70,
Cc1cc(S(=O)(=O)Nc2cc(N)[nH]n2)c(SCc2nc(N)nc(N(C)C)n2)cc1Cl,< 3.70,< 3.70,
COc1ccc(OC)c(CCCC(=O)O)c1,7.20,< 3.70,
C=CCNC(=S)/N=C1\N=S(C)(=O)c2ccccc21 (centres undefined),< 3.05,< 3.05,
CNC(=O)N(C1=NCC(C)S1)c1ccc(C)c(C)c1 (centres undefined),,,inactive
Nc1cn(C2OC(CC(c3ccccc3)(c3ccccc3)c3ccccc3)C(O)C2O)c(=O)[nH]c1=O (centres undefined),< 3.86,4.54,
CN(c1ccccc1Cl)S(=O)(=O)c1ccc([N+](=O)[O-])cc1,< 3.70,< 3.70,
COC1/C=C\C=C(/C)C(=O)Nc2cc3nc4ccc(Br)cc4oc-3c(c2=O)CC(C)CC(OC)C(O)C(C)/C=C(\C)C1OC(N)=O (centres undefined),< 6.70,7.94,
O=C(O)CC1NC(/C(=C/c2ccccc2O)NC(=O)c2ccccc2)OC1=O (centres undefined),,,inactive
COc1ccc(C(C2=C(O)CC(C)OC2=O)C2=C(O)CC(C)OC2=O)cc1 (centres undefined),< 3.18,3.37,
O=[N+]([O-])Cc1cnc2nncn2n1,,,inactive
NC(CC(=O)OCc1ccccc1)C(=O)OCc1ccccc1 (centres undefined),< 3.70,< 3.70,
NS(=O)(=O)c1cc[c]([Sb]=[O])cc1,< 3.70,4.21,
COC(=O)C(=O)c1c2ccccc2n2ccc3c4ccccc4[nH]c3c12,< 3.70,4.08,
COP(=O)(OC)C(Cc1cn(C(C)=O)c2ccccc12)C(=O)O (centres undefined),< 3.70,< 3.70,
O=C(N/N=C\c1ccc([N+](=O)[O-])s1)c1ccncc1,< 3.70,5.06,
CC1(C)CCSC(/C=C/c2ccccc2)=N1,< 4.70,5.38,
O=C1C(=Cc2ccc([N+](=O)[O-])cc2)C(=O)c2ccccc21,< 4.31,4.93,
Cc1ccc2cc(NC(=O)CBr)c3ccc(C)nc3c2n1,< 5.70,6.02,
COc1cc(OC)c(/C=C/c2ccncn2)c(OC)c1,< 3.74,4.03,
O=C(c1ccc(Cl)cc1)c1ccc(OCC(=O)N2CCN(c3ccccc3)CC2)cc1,< 4.92,< 4.92,

Structure (SMILES),pEC50,pIC50,outcome
O=C1/C(=C/c2ccc(Cl)c(Cl)c2)CCC/C1=C\c1ccc(Cl)c(Cl)c1,< 4.30,5.53,
CCC(C)C(NC(=O)c1ccccc1SC(=O)CCC[n+]1ccccc1)C(N)=O (centres undefined),< 4.12,5.32,
O=c1[nH]cnc2c1ncn2C1SC(CO)C(O)C1O (centres undefined),< 3.70,3.93,
CC(=O)OC12C=CC(=O)N1c1ccccc1C(=O)O2 (centres undefined),,,inactive
O=C(O)C1CSCN1 (centres undefined),< 3.33,< 3.33,
Nc1ccn(CCNCCn2cnc3nc(N)[nH]c(=O)c32)c(=O)n1,< 5.08,< 5.08,
Cc1ccccc1[P+](Cc1ccccc1)(c1ccccc1C)c1ccccc1C,< 4.70,5.97,
CSc1cccc(-n2c3nc(=O)n(C)c(=O)c-3nc3ccccc32)c1,,,inactive
CC(C)(C)C(=O)C(c1ccc(-c2cscn2)cc1)c1ccc(-c2cscn2)cc1,< 5.60,< 5.60,
CC12N=NN(c3ccc([N+](=O)[O-])cc3)C1(O)c1ccccc1C2=O (centres undefined),< 3.70,< 3.70,
N#Cc1c2c(cn3c1nc1ccccc13)CCCC2,< 3.70,3.97,
O=C(Nc1ccc([N+](=O)[O-])cc1[N+](=O)[O-])C(=O)C(C(=O)c1ccc(Cl)c(Cl)c1)C1OC(=O)c2ccccc21 (centres undefined),< 4.05,4.54,
COc1ccc(-c2c(C(C)=O)c(C)n(C3OC(CO)C(O)C(O)C3O)c(=S)c2C#N)cc1 (centres undefined),< 3.70,4.23,
CC(C)CN(CC(=O)Nc1cccc(Cl)c1)CC(C)C,< 3.70,3.85,
[Cu+2].c1nnc(N2CNCCNCN(c3nnc[n-]3)CNCCNC2)[n-]1,< 3.70,< 3.70,
Cc1ccc(S(=O)S(=O)c2ccc(C)cc2)cc1 (centres undefined),,,inactive
CNC(=S)SSC(=S)NCCNC(=S)SSC(=S)NC,,,inactive
Brc1c2nc3ccccc3nc2n2ccc3ccccc3c12,< 4.54,< 4.54,
CCOC1(c2ccccc2)OC(=O)c2ccccc21 (centres undefined),,,inactive
CC(C)(CCCCC(C)(C)NC(=O)Nc1ccc(Cl)c(Cl)c1)NC(=O)Nc1ccc(Cl)c(Cl)c1,< 3.70,5.05,
